Assay results from the METLIN SMRT retention time set (Domingo-Almenara et al. 2019).

Test: gradient 5% acetonitrile 3 min, to 50% in 2 min, to 85% in 15 min, held 3 min, 100 µL/min
Settings: column: Zorbax Extend-C18 2.1 x 50 mm; eluents: water / acetonitrile, 0.1% formic acid
Method in brief: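 Data were gathered over 3 months by HPLC coupled to a quadrupole time-of-flight mass spectrometer, operated in positive and negative ionization mode. Mixtures of ~100 pure standards ran on a Zorbax Extend-C18 column (2.1 × 50 mm, 1.8 μm) at 100 μL/min, with water and acetonitrile each containing 0.1% formic acid and dead and dwell volumes of 40 μL and 900 μL. Retention time was read from adduct peaks picked by computer and checked manually.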

Row | RP-LC retention time [s] | SMILES
1 | 840 | O=C1CCCC(=O)N1CCS(=O)(=O)NCc1cccc(Oc2ccc(F)cc2)c1
2 | 820 | CCn1cc(CCNC(=O)Nc2cc(F)c(F)c(F)c2)c2cccnc21
3 | 675 | Cc1cc(C)n(CCNC(=O)CSc2ccc(F)cc2)n1
4 | 725 | CC1(C(=O)NCc2ccc(Cl)cc2)Oc2cccnc2NC1=O (stereo unspecified)
5 | 943 | COc1ccc(CCc2nc3nccc(-c4ccc(OC)cc4)n3n2)cc1
6 | 834 | Cc1ccc(N2C(=O)CN(S(C)(=O)=O)CC2(C)C(=O)NCc2ccc(F)cc2)c(C)c1 (stereo unspecified)
7 | 1050 | CCn1cc(-c2nc(CC(=O)NC3CCCCCC3)cs2)c2cccnc21
8 | 764 | CCCCNC(=O)C1c2cc(OC)c(OC)cc2C(=O)N(C)C1c1ccc(OC)cc1 (stereo unspecified)
9 | 922 | COc1cccc(C(=O)NC2(C(F)(F)F)C(=O)N(CC3CCCO3)C3=C2C(=O)CC(C)(C)C3)c1 (stereo unspecified)
10 | 820 | O=C(NC1CC1)c1ccc(OCC2CCCN(C(=O)c3cc(F)ccc3F)C2)cc1 (stereo unspecified)
11 | 630 | COc1ccccc1NC(=O)N1CCN(CCn2c(C(F)(F)F)nc3cccnc32)CC1
12 | 647 | O=C(Cn1nc2nc(N3CCCC3)ccn2c1=O)Nc1ccc2c(c1)OCO2
13 | 919 | CCS(=O)(=O)N1CC(=O)N(c2ccc(F)cc2C)C(C)(C(=O)NC2CCCCC2)C1 (stereo unspecified)
14 | 843 | Cc1cccc(NC(=O)C2CCN(S(=O)(=O)c3cc(C(=O)N4CCCC4)n(C)c3)CC2)c1C
15 | 1290 | CCc1ccc(NC(=O)C2CCCN(c3nccnc3Sc3ccc(C)cc3)C2)cc1 (stereo unspecified)
16 | 628 | COc1ccc(-c2nc3cc(C)ccn3c2NC(=O)CC(C)C)cc1
17 | 595 | CN(C)C[C@@H]1CN(c2ncccn2)C[C@H]1NC(=O)c1ccc2ccccc2n1
18 | 640 | CCOc1ccc(N(CC)C(=O)c2nc(C)n(C3CCN(S(C)(=O)=O)CC3)c2C)cc1
19 | 1260 | O=C(C1CCCN(c2nccnc2Sc2ccccc2)C1)N1CCN(c2cccc(Cl)c2)CC1 (stereo unspecified)
20 | 762 | COc1ccc(NS(=O)(=O)c2cc3c(s2)CCN(C(=O)C2CC2)C3)cc1F
21 | 926 | O=C(CCCCCN1CCN(c2ccccc2-c2ccccc2)CC1)NC1CCCc2ccccc21 (stereo unspecified)
22 | 585 | CCNC(=O)N1CCCC(Cn2c(C3CC3)nc3cccnc32)C1 (stereo unspecified)
23 | 704 | O=C(NCCc1ccc(N2CCCC2)cc1)c1ccccc1
24 | 921 | CCn1cc(-c2nc(CC(=O)N3CCN(c4ccc(F)cc4)CC3)cs2)c2cccnc21
25 | 868 | CC(=O)N(Cc1nn(C)c2c1CN(S(=O)(=O)c1ccc3c(c1)CCC3)CC2)c1ccccc1
26 | 945 | Cc1ccc(N2CCC(NC(=O)Nc3cccc(C)c3C)C2=O)cc1 (stereo unspecified)

Row | RP-LC retention time [s] | SMILES
27 | 825 | O=C(Cn1cnc(-c2nc(-c3ccccc3)cs2)c1)Nc1cc(F)ccc1F
28 | 1020 | C=CCOC(=O)COc1ccc2c(=O)c(-c3ccc(Cl)cc3)coc2c1
29 | 642 | O=C(c1cccs1)N1CCCCC1c1nncn1Cc1ccccc1 (stereo unspecified)
30 | 752 | O=C(Nc1ccc2c(c1)CN(C(=O)COc1ccccc1)CCO2)C1CC1
31 | 631 | COc1ccccc1N1CCN(CC(O)c2ccc3c(c2)OCO3)CC1 (stereo unspecified)
32 | 789 | Cc1cccc(NC(=O)Cn2c(=O)c3cc(C4CC4)nn3c3ncccc32)c1
33 | 571 | CCN1CCN(C(=O)CN2C(=O)COc3ccc(C(=O)N4CCCC4)cc32)CC1
34 | 1030 | CCn1c(=O)c(N2CCN(C(=O)Nc3ccc(Br)cc3)CC2)nc2cccnc21
35 | 1040 | COC(=O)C(CCSC)NC(=O)c1cc2c(n(-c3ccc(Cl)cc3)c1=O)CC(C)(C)CC2=O (stereo unspecified)
36 | 775 | Cc1ccc(S(=O)(=O)NC2CCN(C(=O)Cc3c[nH]c4ccccc34)CC2)cc1
37 | 557 | Cc1cnc(CC2CCN(C(=O)C(C)C)C2)n1C1CC1 (stereo unspecified)
38 | 736 | CCN1CCn2cc(S(=O)(=O)Nc3ccc(F)cc3Cl)cc2C1=O
39 | 799 | CN1C(=O)c2cccnc2Sc2cc(NC(=O)c3ccccc3C(F)(F)F)ccc21
40 | 846 | COc1cccc(S(=O)(=O)N2CCC(c3noc(-c4cccnc4)n3)C2)c1 (stereo unspecified)
41 | 794 | COc1cccc(S(=O)(=O)N2CCC(c3nc(C(=O)N(C)C)c(C)o3)CC2)c1
42 | 705 | CCOC(=O)c1noc2nc(C)nc(NCC3CCN(Cc4ccc(C)cc4)CC3)c12
43 | 582 | CCOc1ccccc1NC(=O)N1CCC(CN2CCC(C)CC2)CC1
44 | 824 | Cc1ccc(C2c3cc(OCC(=O)N4CCCC4)ccc3CCN2C(=O)C2CC2)cc1 (stereo unspecified)
45 | 702 | COc1ccc(OC)c(CN2CCCC(OCc3noc(-c4ccoc4)n3)C2)c1 (stereo unspecified)
46 | 833 | CCCNC(=O)N(C)CCc1noc(COc2ccc(Cl)cc2)n1
47 | 711 | CN(CCNC(=O)c1cc(S(=O)(=O)N2CCCCC2)ccc1Cl)Cc1ccccc1
48 | 805 | Cn1nc(C(=O)N2CCN(c3cc(-c4ccccc4)[nH]n3)CC2)c2ccccc21
49 | 964 | Cc1nn(CC(=O)NC2CCCC2)c(=O)c2c(-n3cccc3)n(-c3cccc(F)c3)nc12
50 | 629 | Cc1cc(C(=O)N2CCCn3nc(-c4ccc(F)cc4)cc3C2)nn1C
51 | 666 | Cc1cc(N2CCN(C(=O)c3ccc4c(c3)OCO4)CC2)nc(N2CCCCC2)n1
52 | 855 | CCOC(=O)N1CCN(Cc2nc(-c3ccc(N4CCCC(C)C4)nc3)no2)CC1 (stereo unspecified)

The remaining lines, values behind:

Row | SMILES | RP-LC retention time [s]
53 | COc1ccc(CC(=O)Nc2ccc(-c3nc(Cn4cc(C)cn4)c(C)o3)cc2)cc1 | 889
54 | CCCn1ccc2sc(C)c(C(=O)N3CCOCC3)c2c1=O | 646
55 | CCCNCc1ccc(-c2ccccc2)o1 | 641
56 | CCCCCCCCOC(=O)/C=C/c1ccc(O)c(O)c1 | 630
57 | COc1ccc(-n2ccc(=O)c(-c3nc(-c4cccc(Br)c4)no3)n2)cc1 | 985
58 | Cc1cc(C)c(NC(=O)Cn2nc3c4ccccc4ncn3c2=O)c(C)c1 | 671
59 | Cc1nnc(NC(=O)CSc2nnc(-c3ccccc3F)o2)s1 | 700
60 | CCc1ccc(CNC(=O)c2c(C)oc3nc(C)nc(N4CCCC4)c23)cc1 | 795
61 | CNC(=O)c1csc2c1CCCCC2 | 787
62 | Cc1cc2c(cc1S(=O)(=O)N1CCCC1C(=O)Nc1cccc(Cl)c1C)OC(C)C(=O)N2 (stereo unspecified) | 891
63 | OCCOCCNCc1ccc(-c2ccc(Cl)cc2)o1 | 644
64 | CCN(CC)CCNC(=O)c1cc2cc(S(=O)(=O)N(C)C)ccc2n1CC | 633
65 | COc1ccc(NS(=O)(=O)c2c(C)sc(C)c2-c2cc(C(F)(F)F)on2)cc1Cl | 1180
66 | CN(C)CCNC(=O)CS(=O)Cc1cnn(-c2ccccc2)c1-n1cccc1 (stereo unspecified) | 603
67 | CCN1CCn2cc(C(=O)NCc3cc(C)ccc3C)nc2C1 | 592
68 | CCn1c(C2CCCN(C(=O)NC(C)C)C2)nn(C)c1=O (stereo unspecified) | 613
69 | Cc1ccc(C(=O)N2[C@H]3CC[C@@H]2c2cnc(-c4ccccc4)nc2C3)cn1 | 689
70 | COc1ccc(-c2nc(-c3cn(-c4ccc(F)cc4)nn3)no2)cc1OC | 960
71 | CCN1C(=O)CN(C(=O)c2ccoc2)CC12CCOCC2 | 609
72 | COCCCNCc1c(C(=O)O)c(C)n(Cc2ccccc2Cl)c1C | 688

Row | SMILES | RP-LC retention time [s]
73 | Cn1ccc(C(=O)N2CCNC(=O)C2(C)C)n1 | 527
74 | CC(C)C(=O)Nc1nc(-c2ccc(F)cc2)cs1 | 916
75 | CC(NC(=O)c1ccco1)c1nc(-c2ccc3ncn(C)c3c2)no1 (stereo unspecified) | 599
76 | CCOC(=O)c1noc2ncnc(NCCc3ccc(Cl)cc3)c12 | 1110
77 | CCc1nnc2ccc(NC3CC3)nn12 | 657
78 | COc1ccc(OC)c(CNC(=O)CCc2c(C)nn(-c3cc(N(C)C)ncn3)c2C)c1 | 726
79 | Cc1ccc(Cl)cc1NC(=O)NCCc1cn(CC(C)C)c2ncccc12 | 946
80 | Cc1cc2c(cc1S(=O)(=O)N1CCN(c3ccccn3)CC1)n(C)c(=O)n2C | 606
81 | CCN1N=C(C(=O)N2CCOCC2)S(=O)(=O)c2cc(Cl)ccc21 | 760
82 | Cc1nc(-c2ccncc2)nc2c1CCC(=O)N2CC1COCCO1 (stereo unspecified) | 591
83 | CCCCN(C)C(=O)C1CCN(c2nccc(C)n2)CC1 | 674
84 | Cc1ccc(-c2cc(C(=O)NCCC3=CCCCC3)c(C)[nH]2)cc1C | 1120
85 | CCOC(=O)Cn1cccc(S(=O)(=O)N2CCC(C)CC2)c1=O | 814
86 | CCc1nn2c(ncc3c(=O)n(-c4nccs4)ccc32)c1-c1ccc(F)cc1 | 1320
87 | CC(C)NC(=O)N1[C@H]2CC[C@@H]1c1cnc(-c3ccc(F)cc3)nc1C2 | 839
88 | CCS(=O)(=O)c1cccc(C(=O)Nc2nnc(-c3ccsc3)o2)c1 | 662
89 | CN1C(=O)c2cccn2CC1C(=O)NCc1cccs1 (stereo unspecified) | 654
90 | CCc1nc2cc3c(cc2n1CC(=O)Nc1ccc(Br)cc1)OCCO3 | 707
91 | Cc1ccc(S(=O)(=O)N(C)C)cc1-c1nnc(-c2ccc(Cl)cc2)o1 | 1080
